PubChem BioAssay AID328 (DTP/NCI, 2004)
Where “and” joins values, the source holds several entries; their conditions need not be identical. Equal entries are not always repeated. Toxic doses and inconclusive results are not listed. Rule for the calls: active = survival T/C of 150% or more; inactive = T/C below 125% in these data.

Test system: BDF1 mice, P388 leukemia ip, median survival T/C
Experiment: NCI In Vivo Anticancer Drug Screen. Data for tumor model P388 Leukemia (intraperitoneal) in B6D2F1 (BDF1) mice
Conditions: endpoint: median survival time, higher = longer survival
Procedure, shortened: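 Mice carrying the transplantable tumour receive compound or vehicle. Survival is followed in each arm, and the treated measure is divided by the vehicle measure.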

[1] = dose: 100.0 mg/kg/injection, schedule: Q04DX003 (ip), vehicle: Klucel (hydroxypropylcellulose) (HPC)
[2] = dose: 200.0 mg/kg/injection, schedule: Q04DX003 (ip), vehicle: Klucel (hydroxypropylcellulose) (HPC)
[3] = dose: 400.0 mg/kg/injection, schedule: Q04DX003 (ip), vehicle: Klucel (hydroxypropylcellulose) (HPC)
[4] = dose: 50.0 mg/kg/injection, schedule: Q01DX009 (ip), vehicle: other
[5] = dose: 100.0 mg/kg/injection, schedule: Q01DX009 (ip), vehicle: other
[6] = dose: 6.25 mg/kg/injection, schedule: Q01DX009 (ip), vehicle: saline with Tween-80
[7] = dose: 12.5 mg/kg/injection, schedule: Q01DX009 (ip), vehicle: saline with Tween-80
[8] = dose: 25.0 mg/kg/injection, schedule: Q01DX009 (ip), vehicle: saline with Tween-80
[9] = dose: 50.0 mg/kg/injection, schedule: Q01DX009 (ip), vehicle: saline with Tween-80
[10] = dose: 100.0 mg/kg/injection, schedule: Q01DX009 (ip), vehicle: saline with Tween-80
[11] = dose: 200.0 mg/kg/injection, schedule: Q01DX009 (ip), vehicle: saline with Tween-80
[12] = dose: 12.5 mg/kg/injection, schedule: Q01DX009 (ip), vehicle: saline
[13] = dose: 25.0 mg/kg/injection, schedule: Q01DX009 (ip), vehicle: saline
[14] = dose: 25.0 mg/kg/injection, schedule: Q04DX003 (ip), vehicle: saline
[15] = dose: 50.0 mg/kg/injection, schedule: Q01DX009 (ip), vehicle: saline
[16] = dose: 50.0 mg/kg/injection, schedule: Q04DX003 (ip), vehicle: saline
[17] = dose: 100.0 mg/kg/injection, schedule: Q01DX009 (ip), vehicle: saline
[18] = dose: 100.0 mg/kg/injection, schedule: Q04DX003 (ip), vehicle: saline
[19] = dose: 200.0 mg/kg/injection, schedule: Q01DX009 (ip), vehicle: saline
[20] = dose: 200.0 mg/kg/injection, schedule: Q04DX003 (ip), vehicle: saline
[21] = dose: 400.0 mg/kg/injection, schedule: Q04DX003 (ip), vehicle: saline
[22] = dose: 75.0 mg/kg/injection, schedule: Q01DX009 (ip), vehicle: saline
[23] = dose: 100.0 mg/kg/injection, schedule: Q04DX003 (ip), vehicle: saline with Tween-80

Measured: T/C

COc1cc2ccncc2cc1O
inactive: dose: 3.13 mg/kg/injection, schedule: Q04DX003 (ip), vehicle: water 97 % of control | dose: 6.25 mg/kg/injection, schedule: Q04DX003 (ip), vehicle: water 97 % of control | dose: 12.5 mg/kg/injection, schedule: Q04DX003 (ip), vehicle: water 94 % of control | dose: 25.0 mg/kg/injection, schedule: Q04DX003 (ip), vehicle: water 94 % of control | dose: 50.0 mg/kg/injection, schedule: Q04DX003 (ip), vehicle: water 101 % of control

CC#CC#C/C=C1\OC2(CCCCO2)C(O)C1OC(=O)CC(C)C (stereo unspecified)
inactive: dose: 10.0 mg/kg/injection, schedule: Q01DX009 (ip), vehicle: Klucel (hydroxypropylcellulose) (HPC) 100 % of control | dose: 20.0 mg/kg/injection, schedule: Q01DX009 (ip), vehicle: Klucel (hydroxypropylcellulose) (HPC) 102 % of control | dose: 40.0 mg/kg/injection, schedule: Q01DX009 (ip), vehicle: Klucel (hydroxypropylcellulose) (HPC) 111 % of control

CCCCCCCCCCCCCCSC(CC(=O)O)C(=O)O (stereo unspecified)
inactive: dose: 15.0 mg/kg/injection, schedule: Q01DX009 (ip), vehicle: saline with Tween-80 87 % of control | dose: 30.0 mg/kg/injection, schedule: Q01DX009 (ip), vehicle: saline with Tween-80 98 % of control | dose: 60.0 mg/kg/injection, schedule: Q01DX009 (ip), vehicle: saline with Tween-80 94 % of control

CC(=O)Oc1ccc(C2(c3ccc(OC(C)=O)cc3)C(=O)Nc3ccccc32)cc1
inactive: [1] 95 % of control | [2] 104 % of control | [3] 100 % of control

Nc1nc(N=Nc2ccc(O)cc2)cc(=O)[nH]1
inactive: [4] 106 % of control | [5] 110 % of control | dose: 200.0 mg/kg/injection, schedule: Q01DX009 (ip), vehicle: other 103 % of control | dose: 400.0 mg/kg/injection, schedule: Q01DX009 (ip), vehicle: other 112 % of control

CCOC(=S)SCc1cc(C(C)(C)C)c(O)c(C(C)(C)C)c1
inactive: dose: 100.0 mg/kg/injection, schedule: Q04DX002 (ip), vehicle: saline with Tween-80 100 % of control | dose: 200.0 mg/kg/injection, schedule: Q04DX002 (ip), vehicle: saline with Tween-80 99 % of control

CC1=CC(=NC(=O)CBr)C=C/C1=N\S(=O)(=O)c1ccccc1
inactive: [6] 113 % of control | [7] 111 % of control | [8] 106 % of control

O=C(CN1CCCCC1)Nc1ccc(Br)cc1
inactive: [9] 96 % of control | [10] 104 % of control | [11] 112 % of control

CCCC1([N+](C)(C)C)CSC1CC (stereo unspecified)
inactive: dose: 12.5 mg/kg/injection, schedule: Q04DX002 (ip), vehicle: saline 105 % of control | dose: 25.0 mg/kg/injection, schedule: Q04DX002 (ip), vehicle: saline 103 % of control | dose: 50.0 mg/kg/injection, schedule: Q04DX002 (ip), vehicle: saline 96 % of control

O=[N+]([O-])c1ccc(N2CCCCC2)c([N+](=O)[O-])c1
inactive: [12] 110 % of control | [13] 109 % of control | [14] 121 % of control | [15] 116 % of control | [16] 114 % of control | [17] 100 % of control | [18] 112 % of control | [19] 110 % of control | [20] 123 % of control | dose: 400.0 mg/kg/injection, schedule: Q01DX009 (ip), vehicle: saline 110 % of control | [21] 102 % of control

O=C1c2ccccc2C(=O)C(Cl)C1Cl (stereo unspecified)
inactive: dose: 1.56 mg/kg/injection, schedule: Q01DX009 (ip), vehicle: saline with Tween-80 117 % of control | dose: 3.13 mg/kg/injection, schedule: Q01DX009 (ip), vehicle: saline with Tween-80 103 % of control | [6] 101 % of control

C#CCOCC(CCl)OC(N)=O (stereo unspecified)
inactive: [9] 110 % of control | [10] 114 % of control | [18] 110 % of control | [11] 107 % of control | [20] 120 % of control

CC1=CC(C(O)CC(C)C)C(C)(Cc2ccc(C)cn2)NC1c1ccccc1 (stereo unspecified)
inactive: [6] 107 % of control | [7] 102 % of control | [8] 103 % of control

CCCCCCCCCCCCCCCC[N+]1([O-])CCCC1
inactive: [7] 110 % of control | [8] 99 % of control | [9] 108 % of control

CCCCCCCCCCCCSSC(=S)OC(C)C
inactive: [4] 106 % of control | [5] 124 % of control

O=C(O)CSC(CC(=O)O)C(F)(F)C(F)(F)C(F)(F)F (stereo unspecified)
inactive: [13] 90 % of control | [14] 109 % of control | [15] 100 % of control | [16] 109 % of control | [22] 110 % of control | [17] 95 % of control and 115 % of control | [18] 109 % of control | dose: 150.0 mg/kg/injection, schedule: Q01DX009 (ip), vehicle: saline 120 % of control | [19] 120 % of control | dose: 300.0 mg/kg/injection, schedule: Q01DX009 (ip), vehicle: saline 110 % of control | [21] 122 % of control

CC1CCCC/C1=N/NC(=O)c1ccccc1 (stereo unspecified)
inactive: [9] 87 % of control | [10] 91 % of control | [23] 95 % of control

COC1C(C)OC(OC2CC(C)(O)Cc3cc4c(c(O)c32)C(=O)c2c(O)cc3c(c2C4=O)OC2OC3(C)C(O)C(N(C)C)C2O)C(OC)C1(C)OC (stereo unspecified)
inactive: dose: 1.25 mg/kg/injection, schedule: Q01DX009 (ip), vehicle: other 122 % of control | dose: 20.0 mg/kg/injection, schedule: Q04DX003 (ip), vehicle: water 111 % of control
active: dose: 4.32 mg/kg/injection, schedule: Q04DX003 (ip), vehicle: water 169 % of control | dose: 5.0 mg/kg/injection, schedule: Q01DX009 (ip), vehicle: other 154 % of control | dose: 7.2 mg/kg/injection, schedule: Q04DX003 (ip), vehicle: water 183 % of control | dose: 10.0 mg/kg/injection, schedule: Q01DX009 (ip), vehicle: other 151 % of control

CCC[S-].CCC[S-].[C-]#[O+].[C-]#[O+].[C-]#[O+].[C-]#[O+].[Rh].[Rh]
inactive: [23] 122 % of control | [11] 90 % of control | dose: 200.0 mg/kg/injection, schedule: Q04DX003 (ip), vehicle: saline with Tween-80 122 % of control | dose: 400.0 mg/kg/injection, schedule: Q01DX009 (ip), vehicle: saline with Tween-80 100 % of control | dose: 400.0 mg/kg/injection, schedule: Q04DX003 (ip), vehicle: saline with Tween-80 122 % of control

CC(=O)Nc1nnc(/C=C/c2ccc([N+](=O)[O-])o2)s1
inactive: [3] 100 % of control

CCOc1ccc(-c2cc(C)n(C)[n+]2C)cc1
inactive: [7] 100 % of control | [8] 98 % of control | [9] 92 % of control

O=C(C[n+]1ccc2ccccc2c1)c1ccc(Br)cc1
inactive: dose: 7.03 mg/kg/injection, schedule: Q04DX003 (ip), vehicle: saline 100 % of control | [12] 114 % of control | dose: 14.06 mg/kg/injection, schedule: Q04DX003 (ip), vehicle: saline 108 % of control | [13] 109 % of control | dose: 28.12 mg/kg/injection, schedule: Q04DX003 (ip), vehicle: saline 100 % of control | [15] 119 % of control | dose: 56.25 mg/kg/injection, schedule: Q04DX003 (ip), vehicle: saline 95 % of control | [22] 112 % of control

C1=C(c2ccccc2)CS1
inactive: dose: 25.0 mg/kg/injection, schedule: Q01DX001 (ip), vehicle: saline with Tween-80 104 % of control | dose: 50.0 mg/kg/injection, schedule: Q01DX001 (ip), vehicle: saline with Tween-80 101 % of control

O=[N+]([O-])c1ccc(S(=O)(=O)Oc2ccccc2)cc1
inactive: [9] 105 % of control | dose: 50.0 mg/kg/injection, schedule: Q04DX003 (ip), vehicle: Klucel (hydroxypropylcellulose) (HPC) 100 % of control | [10] 100 % of control | [1] 105 % of control | [11] 105 % of control | [2] 105 % of control
